Molecular target: Human immunodeficiency virus type 1 protease (Human immunodeficiency virus 1, UniProt Q72874)
Test: Inhibition of HIV1 protease by FRET assay

| Compound | IC50 [µM] |
| --- | --- |
| C[C@@H]1CN(CC(=O)N[C@@H](Cc2ccccc2)[C@H](O)CN(C2CC2)S(=O)(=O)c2ccc(N)cc2)CCO1 | 1.53 |
| O=C(CN[C@@H](Cc1ccccc1)[C@H](O)CN(C1CC1)S(=O)(=O)c1ccc([N+](=O)[O-])cc1)N1CCOCC1 | > 10 |
| Nc1ccc(S(=O)(=O)N(C[C@@H](O)[C@H](Cc2ccccc2)NCC(=O)N2CCOCC2)C2CC2)cc1 | 1.15 |
| O=C(N[C@@H](Cc1ccccc1)[C@H](O)CN(C1CC1)S(=O)(=O)c1ccc([N+](=O)[O-])cc1)OCCN1CCOCC1 | 0.08 |
| COc1ccc(S(=O)(=O)N(C[C@@H](O)[C@H](Cc2ccccc2)NCC(=O)N2CCOCC2)C2CC2)cc1 | 0.18 |
| O=C(CN1CCOCC1)N[C@@H](Cc1ccccc1)[C@H](O)CN(C1CC1)S(=O)(=O)c1ccc([N+](=O)[O-])cc1 | 5.43 |
| C[C@H]1CN(CC(=O)N[C@@H](Cc2ccccc2)[C@H](O)CN(C2CC2)S(=O)(=O)c2ccc(C(F)(F)F)cc2)CCO1 | 0.4 |
| Nc1ccc(S(=O)(=O)N(C[C@@H](O)[C@H](Cc2ccccc2)NC(=O)N2CCOCC2)C2CC2)cc1 | 0.64 |
| C[C@H]1CN(CC(=O)N[C@@H](Cc2ccccc2)[C@H](O)CN(C2CC2)S(=O)(=O)c2ccc(N)cc2)CCO1 | 1.34 |
| O=C(CN1CCOCC1)N[C@@H](Cc1ccccc1)[C@H](O)CN(C1CC1)S(=O)(=O)c1ccc(C(F)(F)F)cc1 | 0.4 |
| Nc1ccc(S(=O)(=O)N(C[C@@H](O)[C@H](Cc2ccccc2)NC(=O)OCCN2CCOCC2)C2CC2)cc1 | 0.061 |
| O=C(N[C@@H](Cc1ccccc1)[C@H](O)CN(C1CC1)S(=O)(=O)c1ccc(C(F)(F)F)cc1)OCCN1CCOCC1 | 0.12 |
| COc1ccc(S(=O)(=O)N(C[C@@H](O)[C@H](Cc2ccccc2)NC(=O)OCCN2CCOCC2)C2CC2)cc1 | 0.053 to 0.054 |
| O=C(N[C@@H](Cc1ccccc1)[C@H](O)CN(C1CC1)S(=O)(=O)c1ccc([N+](=O)[O-])cc1)N1CCOCC1 | 0.79 |
| O=C(N[C@@H](Cc1ccccc1)[C@H](O)CN(C1CC1)S(=O)(=O)c1ccc(C(F)(F)F)cc1)N1CCOCC1 | 0.047 |

The next lines start with the values.

| IC50 [µM] | Compound |
| --- | --- |
| 0.19 | COc1ccc(S(=O)(=O)N(C[C@@H](O)[C@H](Cc2ccccc2)NC(=O)CN2CCO[C@H](C)C2)C2CC2)cc1 |
| 1.69 | O=S(=O)(c1ccc(C(F)(F)F)cc1)N(C[C@@H](O)[C@H](Cc1ccccc1)NCCN1CCOCC1)C1CC1 |
| 0.26 | COc1ccc(S(=O)(=O)N(C[C@@H](O)[C@H](Cc2ccccc2)NC(=O)N2CCOCC2)C2CC2)cc1 |
| 2.99 | C[C@@H]1CN(CC(=O)N[C@@H](Cc2ccccc2)[C@H](O)CN(C2CC2)S(=O)(=O)c2ccc(C(F)(F)F)cc2)CCO1 |
| 0.58 | C[C@H]1CN(CC(=O)N[C@@H](Cc2ccccc2)[C@H](O)CN(C2CC2)S(=O)(=O)c2ccc([N+](=O)[O-])cc2)CCO1 |
| 1.27 | COc1ccc(S(=O)(=O)N(C[C@@H](O)[C@H](Cc2ccccc2)NC(=O)CN2CCO[C@@H](C)C2)C2CC2)cc1 |
| 0.61 | O=[N+]([O-])c1ccc(S(=O)(=O)N(C[C@@H](O)[C@H](Cc2ccccc2)NCCN2CCOCC2)C2CC2)cc1 |
| 1.26 | O=C(CN[C@@H](Cc1ccccc1)[C@H](O)CN(C1CC1)S(=O)(=O)c1ccc(C(F)(F)F)cc1)N1CCOCC1 |
| 0.17 | COc1ccc(S(=O)(=O)N(C[C@@H](O)[C@H](Cc2ccccc2)NCCN2CCOCC2)C2CC2)cc1 |
| 1.04 | COc1ccc(S(=O)(=O)N(C[C@@H](O)[C@H](Cc2ccccc2)NC(=O)CN2CCOCC2)C2CC2)cc1 |
| > 10 | Nc1ccc(S(=O)(=O)N(C[C@@H](O)[C@H](Cc2ccccc2)NC(=O)CN2CCOCC2)C2CC2)cc1 |
| 0.94 | Nc1ccc(S(=O)(=O)N(C[C@@H](O)[C@H](Cc2ccccc2)NCCN2CCOCC2)C2CC2)cc1 |
| 0.93 | C[C@@H]1CN(CC(=O)N[C@@H](Cc2ccccc2)[C@H](O)CN(C2CC2)S(=O)(=O)c2ccc([N+](=O)[O-])cc2)CCO1 |
